According to patent publication US9511073B2, “Aromatic amides and uses thereof” (TAXIS Pharmaceuticals, Inc., priority 2011, dated 2016):
In brackets after ≈: the same amount, converted by molar mass. Like-named read-outs stand apart in the source and are kept apart here.

How the values were obtained:
[1] = tested on: Staphylococcus aureus (Isolate ID ATCC 29213); test: Bacterial assay: MIC by broth microdilution or agar dilution (CLSI), S. aureus ATCC 29213; type: cell-based; conditions: Staphylococcus aureus
How it was run: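 Activity is binned (A ≤0.25 μg/mL; B >0.25–1.0; C >1.0–16; D >16 μg/mL) from MICs determined per CLSI by broth microdilution or agar dilution, on S. aureus ATCC 29213 plus an FtsZ-G196A mutant strain.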

[2] = tested on: FtsZ-G196A Staphylococcus aureus (Isolate ID GG/190723/sa/1.2); test: Bacterial assay: MIC, FtsZ G196A mutant strain; type: cell-based
Experimental: (§1) Compounds are tested for antimicrobial activity by susceptibility testing in liquid or on solid media. Minimum inhibitory concentrations (MICs) for compounds against each strain are determined by the broth microdilution or agar dilution method according to the guidelines of the Clinical Laboratories and Standards Institute, formerly the National Committee for Clinical Laboratory Standards (Clinical Laboratories and Standards Institute. Methods for Dilution Antimicrobial Susceptibility Tests for Bacteria That Grow Aerobically; Approved Standard—Seventh Edition. Document M7-A7. CLSI, Wayne, Pa., 2006; Clinical Laboratories and Standards Institute). The bacterial strains tested include S. aureus (Staphylococcus aureus (Isolate ID ATCC 29213)) and an FtsZ mutant of this isolate (FtsZ-G196A Staphylococcus aureus (Isolate ID GG/190723/sa/1.2)). Compound MICs were determined to be in the following activity ranges “A” activity≦0.25 μg/mL; “B” activity>0.25 μg/mL-1.0 μg/mL; “C” activity>1.0 μg/mL-16 μg/mL; “D” activity>16 μg/mL and ND=not determined. The bracketed entries indicate entantiomer(s) and their activity.
The comparative activity of selected compounds having a bromo-substituted oxazole against their corresponding non-brominated analogues is shown in Table 4.

[3] = Pharmacokinetic assay: plasma concentration by LC/MS/MS after single intravenous or peroral dose of 3 mg/kg; type: in vivo; conditions: 3 mg/kg IV dosing in mice
Experimental: The pharmacokinetic profiles of selected comparator compounds A-N in Table 6 and compounds of the invention were determined by measuring the compound concentration in plasma by LC/MS/MS following a single intravenous or peroral administration of the compounds at a dose of 3 mg/kg. The concentrations described are the mean plasma concentrations at each time point from three animals. Intravenous dose formulation was administered as a single bolus dose through the tail vein. Oral dose formulation was administered to animals by an oral gavage needle. In both cases the dose volume was 5.0 mL/kg. Blood was collected from anesthetized mice through a capillary guided into the retro-orbital plexus. The collected blood was centrifuged to obtain plasma and the compounds extracted into methanol prior to determining the compound concentration by LC/MS/MS. The results are shown graphically in FIG. 1 and for the AUC and CL parameters in Table 6.

[4] = tested on: S. aureus ATCC 19636 (Smith); test: MIC, staphylococcal panel; type: cell-based; conditions: Staphylococcus aureus, ATCC19636
Experimental: as §1
(§2) Selected compounds were also tested against a panel of target strains and their MICs are shown in Table 3 against the gold standard Linezolid. […] The activity of the compounds observed against S. aureus was also shown to be maintained within a narrow range across the staphylococcal panel tested.

[5] = tested on: S. epidermidis ATCC 12228; test: MIC, staphylococcal panel; type: cell-based; conditions: Staphylococcus epidermidis, ATCC12228
Experimental: as §1, §2

[6] = tested on: S. haemolyticus ATCC 29970; test: MIC, staphylococcal panel; type: cell-based; conditions: Staphylococcus haemolyticus, ATCC29970
Experimental: as §1, §2

[7] = tested on: S. hominis ATCC 27844; test: MIC, staphylococcal panel; type: cell-based; conditions: Staphylococcus hominis, ATCC27844
Experimental: as §1, §2

[8] = tested on: S. lugdunensis ATCC 43809; test: MIC, staphylococcal panel; type: cell-based; conditions: Staphylococcus lugdunensis, ATCC43809
Experimental: as §1, §2

[9] = tested on: S. saprophyticus ATCC 43809; test: MIC, staphylococcal panel; type: cell-based; conditions: Staphylococcus saprophyticus, ATCC43809
Experimental: as §1, §2

[10] = tested on: S. warneri ATCC 49454; test: MIC, staphylococcal panel; type: cell-based; conditions: Staphylococcus warneri, ATCC49454
Experimental: as §1, §2

[11] = tested on: S. aureus ATCC 43300 (MRSA); test: microbe, parasite or virus in culture; type: cell-based; conditions: Staphylococcus aureus
Experimental: as §1, §2

[12] = tested on: S. aureus ATCC BAA-44 (MDRSA); test: microbe, parasite or virus in culture; type: cell-based; conditions: Staphylococcus aureus, ATCCBAA44
Experimental: as §1, §2

[13] = ATCC29213, read-out: MIC (μg/mL) S. aureus (ATCC29213), Table 5, racemate and enantiomers
[14] = ATCC29213, read-out: S. aureus MIC (μg/mL) Activity Range, S. aureus (ATCC29213)
[15] = read-out: MIC (μg/mL) FtsZ G196A mutant strain
[16] = read-out: MIC (μg/mL) G196A mutant strain
[17] = ATCC29213, Staphylococcus aureus ATCC 29213, Table 3 panel

Structure (SMILES) | MIC [1, 13] [µg/mL] | MIC [1, 14] [µg/mL] | MIC [2, 15] [µg/mL] | MIC [2, 16] [µg/mL] | other results
COc1ccc(-c2nc([C@@H](C)Oc3ccc(F)c(C(N)=O)c3F)oc2Br)cc1 [Compound 5B] | 0.5 (≈ 1.1 µM) | 0.25 to 1 (≈ 0.552 to 2.21 µM) | 16 (≈ 35.3 µM) | 16 (≈ 35.3 µM) | 
NC(=O)c1c(F)ccc(OC(CNC(=O)c2ccccc2)c2nc(-c3ccc(C(F)(F)F)cc3)co2)c1F (centres unmarked) [Compound 289, 3-(2-benzamido-1-(4-(4-(trifluoromethyl)phenyl)oxazol-2-yl)ethoxy)-2,6-difluorobenzamide] |  | 1 to 16 (≈ 1.88 to 30.1 µM) | > 256 |  | 
NC(=O)c1c(F)ccc(OC(CO)c2nc(-c3ccc(C(F)(F)F)cc3)c(Br)o2)c1F (racemic) [Compound 38, 3-(1-(5-bromo-4-(4-(trifluoromethyl)phenyl)oxazol-2-yl)-2-hydroxyethoxy)-2,6-difluorobenzamide] | 0.25 (≈ 0.493 µM) | < 0.25 |  | 4 (≈ 7.89 µM) | AUC [3]: 6700 ng·h/mL; clearance ([3]; mouse, plasma): 7 mL/min/kg
NC(=O)c1c(F)ccc(O[C@@H](CO)c2nc(-c3ccc(F)cc3F)c(Br)o2)c1F [Compound 233A, (S)-3-(1-(5-bromo-4-(2,4-difluorophenyl)oxazol-2-yl)-2-hydroxyethoxy)-2,6-difluorobenzamide] | 32 (≈ 67.3 µM) | > 16 |  | > 256 | 
CC(=O)NC[C@H]1CN(c2ccc(N3CCOCC3)c(F)c2)C(=O)O1 [Linezolid, reference compound] |  |  |  |  | MIC ([1]; ATCC29213, Staphylococcus aureus ATCC 29213, Table 3 panel, read-out: MIC): 2 µg/mL (≈ 5.93 µM); MIC ([4]; S. aureus ATCC 19636 (Smith), read-out: MIC): 2 µg/mL (≈ 5.93 µM); MIC ([5]; S. epidermidis ATCC 12228, read-out: MIC): 1 µg/mL (≈ 2.96 µM); MIC ([6]; S. haemolyticus ATCC 29970, read-out: MIC): 1 µg/mL (≈ 2.96 µM); MIC ([7]; S. hominis ATCC 27844, read-out: MIC): 1 µg/mL (≈ 2.96 µM); MIC ([8]; S. lugdunensis ATCC 43809, read-out: MIC): 1 µg/mL (≈ 2.96 µM); MIC ([9]; S. saprophyticus ATCC 43809, read-out: MIC): 2 µg/mL (≈ 5.93 µM); MIC ([10]; S. warneri ATCC 49454, read-out: MIC): 2 µg/mL (≈ 5.93 µM); MIC ([11]; S. aureus ATCC 43300 (MRSA), read-out: MIC): 2 µg/mL (≈ 5.93 µM); MIC ([12]; S. aureus ATCC BAA-44 (MDRSA), read-out: MIC): 1 µg/mL (≈ 2.96 µM)
COc1ccc(-c2coc([C@@H](C)Oc3ccc(F)c(C(N)=O)c3F)n2)cc1 [Compound 268B] |  | 1 to 16 (≈ 2.67 to 42.7 µM) | > 256 |  | 
NC(=O)c1c(F)ccc(O[C@H](CO)c2nc(-c3ccc(C(F)(F)F)cc3)c(Br)o2)c1F (single isomer, unassigned) [Compound 38B] | 0.125 (≈ 0.246 µM) | < 0.25 |  | 2 (≈ 3.94 µM) | MIC [1, 17]: 0.125 µg/mL (≈ 0.246 µM); MIC [4]: 0.125 µg/mL (≈ 0.246 µM); MIC [5]: 0.125 µg/mL (≈ 0.246 µM); MIC [6]: 0.125 µg/mL (≈ 0.246 µM); MIC [7]: 0.125 µg/mL (≈ 0.246 µM); MIC [8]: 0.25 µg/mL (≈ 0.493 µM); MIC [9]: 0.06 µg/mL (≈ 0.118 µM); MIC [10]: 0.25 µg/mL (≈ 0.493 µM); MIC [11]: 0.125 µg/mL (≈ 0.246 µM); MIC [12]: 0.125 µg/mL (≈ 0.246 µM); clearance ([3]; mouse, plasma): 12 mL/min/kg; AUC ([3]; mouse, plasma, read-out: AUC): 4000 ng·h/mL
COC(=O)NCC(Oc1ccc(F)c(C(N)=O)c1F)c1nc(-c2ccc(C(F)(F)F)cc2)c(Br)o1 (centres unmarked) [Compound 288, methyl (2-(5-bromo-4-(4-(trifluoromethyl)phenyl)oxazol-2-yl)-2-(3-carbamoyl-2,4-difluorophenoxy)ethyl)carbamate] |  | 0.25 to 1 (≈ 0.443 to 1.77 µM) | 16 (≈ 28.4 µM) |  | 
NC(=O)c1c(F)ccc(OC(CNC(=O)c2ccccc2)c2nc(-c3ccc(C(F)(F)F)cc3)c(Br)o2)c1F (centres unmarked) [Compound 292, 3-(2-benzamido-1-(5-bromo-4-(4-(trifluoromethyl)phenyl)oxazol-2-yl)ethoxy)-2,6-difluorobenzamide] |  | < 0.25 | 1 (≈ 1.64 µM) |  | 
NC(=O)c1c(F)ccc(O[C@H](CO)c2nc(-c3ccc(F)cc3F)c(Br)o2)c1F [Compound 233B, (R)-3-(1-(5-bromo-4-(2,4-difluorophenyl)oxazol-2-yl)-2-hydroxyethoxy)-2,6-difluorobenzamide] | 0.25 (≈ 0.526 µM) | < 0.25 |  | 8 (≈ 16.8 µM) | 
COC(=O)NCC(Oc1ccc(F)c(C(N)=O)c1F)c1nc(-c2ccc(C(F)(F)F)cc2)co1 (centres unmarked) [Compound 287, methyl (2-(3-carbamoyl-2,4-difluorophenoxy)-2-(4-(4-(trifluoromethyl)phenyl)oxazol-2-yl)ethyl)carbamate] |  | > 16 | > 256 |  | 
NC(=O)c1c(F)ccc(O[C@@H](CO)c2nc(-c3ccc(C(F)(F)F)cc3)c(Br)o2)c1F (single isomer, unassigned) [Compound 38A] | 16 (≈ 31.5 µM) | 1 to 16 (≈ 1.97 to 31.5 µM) |  | 64 (≈ 126 µM) | clearance ([3]; mouse, plasma): 6 mL/min/kg; AUC ([3]; mouse, plasma, read-out: AUC): 7800 ng·h/mL
C[C@@H](Oc1ccc(F)c(C(N)=O)c1F)c1nc(-c2ccc(C(F)(F)F)cc2)c(Br)o1 [Compound 184, (R)-3-(1-(5-bromo-4-(4-(trifluoromethyl)phenyl)oxazol-2-yl)ethoxy)-2,6-difluorobenzamide] |  | < 0.25 | 0.5 (≈ 1.02 µM) |  | 
COc1ccc(-c2nc(C(C)Oc3ccc(F)c(C(N)=O)c3F)oc2Br)cc1 (racemic) [Compound 5] | 1 (≈ 2.21 µM) | 0.25 to 1 (≈ 0.552 to 2.21 µM) |  | 32 (≈ 70.6 µM) | 
COc1ccc(-c2nc([C@H](C)Oc3ccc(F)c(C(N)=O)c3F)oc2Br)cc1 [Compound 5A] | 16 (≈ 35.3 µM) | 1 to 16 (≈ 2.21 to 35.3 µM) |  | > 256 | 
NC(=O)c1c(F)ccc(OC(CO)c2nc(-c3ccc(F)cc3F)c(Br)o2)c1F (racemic) [Compound 233, 3-(1-(5-bromo-4-(2,4-difluorophenyl)oxazol-2-yl)-2-hydroxyethoxy)-2,6-difluorobenzamide] | 0.25 (≈ 0.526 µM) | < 0.25 |  | 8 (≈ 16.8 µM) | MIC [1, 17]: 0.25 µg/mL (≈ 0.526 µM); MIC [4]: 0.25 µg/mL (≈ 0.526 µM); MIC [5]: 0.5 µg/mL (≈ 1.05 µM); MIC [6]: 0.5 µg/mL (≈ 1.05 µM); MIC [7]: 0.5 µg/mL (≈ 1.05 µM); MIC [8]: 0.5 µg/mL (≈ 1.05 µM); MIC [9]: 0.5 µg/mL (≈ 1.05 µM); MIC [10]: 0.5 µg/mL (≈ 1.05 µM); MIC [11]: 0.5 µg/mL (≈ 1.05 µM); MIC [12]: 0.25 µg/mL (≈ 0.526 µM); clearance ([3]; mouse, plasma): 18 mL/min/kg; AUC ([3]; mouse, plasma, read-out: AUC): 2300 ng·h/mL
C[C@@H](Oc1ccc(F)c(C(N)=O)c1F)c1nc(-c2ccc(C(F)(F)F)cc2)co1 [Compound 183, (R)-2,6-difluoro-3-(1-(4-(4-(trifluoromethyl)phenyl)oxazol-2-yl)ethoxy)benzamide] |  | 1 to 16 (≈ 2.43 to 38.8 µM) | > 256 |  | 
